{"source": "paper PMC5297703", "about": "“R-Flurbiprofen Traps Prostaglandins within Cells by Inhibition of Multidrug Resistance-Associated Protein-4” (International Journal of Molecular Sciences, 2016)", "biological_target": "T1, cPLA2α (Homo sapiens, UniProt P47712)", "T1 construct": "gene PLA2G4A; recombinant, isolated from Sf9 insect cells", "T1 sequence (P47712 1-749)": "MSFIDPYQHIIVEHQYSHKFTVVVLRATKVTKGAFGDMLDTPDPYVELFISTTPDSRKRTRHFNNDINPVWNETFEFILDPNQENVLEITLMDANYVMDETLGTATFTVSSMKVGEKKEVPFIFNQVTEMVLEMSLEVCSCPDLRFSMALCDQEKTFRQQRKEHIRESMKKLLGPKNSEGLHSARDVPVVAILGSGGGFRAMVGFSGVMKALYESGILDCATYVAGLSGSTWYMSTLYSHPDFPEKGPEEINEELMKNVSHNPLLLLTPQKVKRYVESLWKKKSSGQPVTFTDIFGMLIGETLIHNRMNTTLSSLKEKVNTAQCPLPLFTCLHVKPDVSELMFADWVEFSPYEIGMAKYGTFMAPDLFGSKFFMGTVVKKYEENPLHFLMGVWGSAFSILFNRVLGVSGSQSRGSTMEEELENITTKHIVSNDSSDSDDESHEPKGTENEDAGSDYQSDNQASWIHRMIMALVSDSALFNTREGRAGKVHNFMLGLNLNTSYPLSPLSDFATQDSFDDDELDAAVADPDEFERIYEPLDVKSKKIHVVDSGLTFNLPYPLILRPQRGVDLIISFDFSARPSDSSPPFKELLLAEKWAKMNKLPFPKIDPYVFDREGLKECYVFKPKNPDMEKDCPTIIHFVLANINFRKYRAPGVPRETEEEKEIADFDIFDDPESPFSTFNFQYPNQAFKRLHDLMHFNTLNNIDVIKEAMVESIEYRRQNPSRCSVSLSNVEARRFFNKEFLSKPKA", "assay": "cPLA2α activity assay with PAPC/POG vesicles, arachidonic acid by LC-MS/MS", "format": "biochemical", "data": [{"smiles": "C[C@@H](C(=O)O)c1ccc(-c2ccccc2)c(F)c1", "note": "[R-flurbiprofen]", "values": [{"measurement": "IC50", "result": 202, "unit": "µM"}]}]}
